Test results as given in the NIST ThermoML archive (doi:10.1021/je700293s).
± gives the expanded uncertainty stated by the source.

Assay: xn = mol fraction of the nth substance listed
Settings: 101 kPa, Liquid, Capillary tube (Ostwald / Ubbelohde) method

CCCCCCCC/C=C\CCCCCCCC(=O)O [(Z)-9-octadecenoic acid] + CCCCCCCCCC(=O)O
kinematic viscosity [m2/s]
Settings	303.15 K	313.15 K	323.15 K	333.15 K	343.15 K	353.15 K	363.15 K
x2 = 0.3533	1.99e-05 ± 6.6e-07	1.45e-05 ± 4.8e-07	1.09e-05 ± 3.6e-07	8.52e-06 ± 2.8e-07	6.83e-06 ± 2.3e-07	5.63e-06 ± 1.9e-07	4.69e-06 ± 1.5e-07
x2 = 0.6211	1.45e-05 ± 4.8e-07	1.08e-05 ± 3.6e-07	8.25e-06 ± 2.7e-07	6.39e-06 ± 2.1e-07	5.17e-06 ± 1.7e-07	4.27e-06 ± 1.4e-07	3.36e-06 ± 1.1e-07

CCCCCCCC/C=C\CCCCCCCC(=O)O [(Z)-9-octadecenoic acid] + CCCCCCCC/C=C\CCCCCCCC(=O)OCC(COC(=O)CCCCCCC/C=C\CCCCCCCC)OC(=O)CCCCCCC/C=C\CCCCCCCC
x1 = 0.758
Settings	kinematic viscosity [m2/s]
293.15 K	6.78e-05 ± 2.3e-06
303.15 K	4.49e-05 ± 1.5e-06
313.15 K	3.13e-05 ± 1e-06
323.15 K	2.28e-05 ± 7.6e-07
333.15 K	1.62e-05 ± 5.4e-07
343.15 K	1.26e-05 ± 4.2e-07
353.15 K	1e-05 ± 3.3e-07
363.15 K	8.22e-06 ± 2.7e-07

CCCCCCCC(=O)OCC(COC(=O)CCCCCCC)OC(=O)CCCCCCC [1,2,3-propanetriol trioctanoate] + CCCCCCCCCC(=O)O
kinematic viscosity [m2/s]
Settings	303.15 K	313.15 K	323.15 K	333.15 K	343.15 K	353.15 K	363.15 K
x2 = 0.4763	1.48e-05 ± 4.9e-07	1.05e-05 ± 3.5e-07	7.89e-06 ± 2.6e-07	6.15e-06 ± 2e-07	5.12e-06 ± 1.7e-07	4.13e-06 ± 1.4e-07	3.53e-06 ± 1.2e-07
x2 = 0.7423	1.29e-05 ± 4.2e-07	9.46e-06 ± 3.1e-07	7.16e-06 ± 2.4e-07	5.66e-06 ± 1.9e-07	4.57e-06 ± 1.5e-07	3.88e-06 ± 1.3e-07	3.18e-06 ± 1.1e-07
x2 = 0.8902	8.98e-06 ± 2.9e-07	7.83e-06 ± 2.6e-07	6.09e-06 ± 2e-07	4.9e-06 ± 1.6e-07	3.99e-06 ± 1.3e-07	3.24e-06 ± 1.1e-07	2.58e-06 ± 9e-08

CCCCC/C=C\C/C=C\CCCCCCCC(=O)OCC(COC(=O)CCCCCCC/C=C\C/C=C\CCCCC)OC(=O)CCCCCCC/C=C\C/C=C\CCCCC [trilinolein] + CCCCCCCC/C=C\CCCCCCCC(=O)O
x2 = 0.7564
Settings	kinematic viscosity [m2/s]
293.15 K	4.14e-05 ± 1.4e-06
303.15 K	2.82e-05 ± 9.4e-07
313.15 K	2.07e-05 ± 6.9e-07
323.15 K	1.48e-05 ± 4.9e-07
333.15 K	1.15e-05 ± 3.8e-07
343.15 K	9.32e-06 ± 3.1e-07
353.15 K	7.62e-06 ± 2.5e-07
363.15 K	6.38e-06 ± 2.1e-07

CCCCC/C=C\C/C=C\CCCCCCCC(=O)O [(Z,Z)-9,12-octadecadienoic acid] + CCCCCCCC/C=C\CCCCCCCC(=O)OCC(COC(=O)CCCCCCC/C=C\CCCCCCCC)OC(=O)CCCCCCC/C=C\CCCCCCCC
x1 = 0.7576
Settings	kinematic viscosity [m2/s]
303.15 K	2.96e-05 ± 9.8e-07
313.15 K	2.13e-05 ± 7.1e-07
323.15 K	1.59e-05 ± 5.3e-07
333.15 K	1.23e-05 ± 4.1e-07
343.15 K	9.76e-06 ± 3.2e-07
353.15 K	7.91e-06 ± 2.6e-07
363.15 K	6.52e-06 ± 2.2e-07

CCCCC/C=C\C/C=C\CCCCCCCC(=O)OCC(COC(=O)CCCCCCC/C=C\C/C=C\CCCCC)OC(=O)CCCCCCC/C=C\C/C=C\CCCCC [trilinolein] + CCCCC/C=C\C/C=C\CCCCCCCC(=O)O
x2 = 0.7536
Settings	kinematic viscosity [m2/s]
303.15 K	2.55e-05 ± 8.4e-07
313.15 K	1.85e-05 ± 6.2e-07
323.15 K	1.31e-05 ± 4.4e-07
333.15 K	9.96e-06 ± 3.3e-07
343.15 K	7.98e-06 ± 2.6e-07
353.15 K	6.83e-06 ± 2.2e-07
363.15 K	5.69e-06 ± 1.9e-07
